This note sets out measurements from patent US7351731B2, “Azole derivatives and methods for making the same” (Board of Governors for Higher Education, State of Rhode …, priority 2005, dated 2008).

One assay deals with A. niger ATCC 16404. In words: MIC microdilution susceptibility testing, A. niger in SDB. Particulars: for fold more potent than FLC against A. niger: MIC ratio to FLC, SDB; for MIC A. niger ATCC 16404, SDB / MIC: SDB medium, 35-37° C., 24-48 h, average of three experiments; for MIC: Aspergillus niger, ATCC16404. Type of assay: cell-based, Aspergillus niger. On the procedure:
(§1) Microorganisnis. […] Stock cultures were kept on Sabouraud dextrose agar (SDA; Becton-Dickinson and Co., Sparks, Md.). Subcultures were prepared on SDA at 35-37° C. Suspension cultures were prepared by inoculation of single colonies in 7 ml of normal saline solution.
(§2) Test compounds were dissolved in DMSO (0.56 mg/ml) and stored at 0° C. Working dilutions were made in RPMI or SDB medium. […] The final maximum concentration of DMSO in the assays was 5% (v/v).
(§3) Microdilutions for control experiments with C. albicans, A. niger, and C. neoformans were the modified method of National Committee for Clinical Laboratory Standards (NCCLS) method as described by Galgiani and by the more recent NCCLS M27-A microdilution methods as described previously. Galgiani, J. N. Antimicrob. Agents Chemother. […] Reference method for broth dilution antifungal susceptibility testing for yeasts. Approval standard. […] 9; C. arballeira, N. M., et al. Arch. Pharm.-Pharm. […] Dilutions were prepared in 0.1 ml of RPMI or SDB; the inocula were either 10^4 C. albicans or C. neoformans cells or A. niger spores. The tubes were incubated for 24-48 h at 36±1° C., and turbidity was read visually.
For orientation: In broth dilution the organism is exposed to a series of concentrations in liquid medium.

The subject of assay [1] is C. albicans ATCC 14053. In words: MIC microdilution susceptibility testing, C. albicans in SDB. In kind it is cell-based, Candida albicans. Particulars: for fold more active than FLC against C. albicans in SDB: MIC ratio to FLC; for MIC C. albicans ATCC 14053, SDB / MIC: 24-48 h, average of three experiments; for fold less antifungal activity against C. albicans in SDB than in RPMI: SDB versus RPMI; for MIC: Candida albicans. The method, then: as §1, §2, §3

Another assay relates to C. neoformans ATCC 66031. As to the kind of experiment: MIC microdilution susceptibility testing, C. neoformans in SDB. Type of assay: cell-based, Cryptococcus neoformans. Particulars: SDB medium, 35-37° C., 24-48 h, average of three experiments; for MIC: Cryptococcus neoformans, ATCC66031. The method, then:
as §1, §2, §3

Assay [2] has as its system C. albicans ATCC 14053. In words: Interaction studies (FIC index) against C. albicans in SDB. In kind it is cell-based, Candida albicans. The following applies: for FIC index: mixed with FLC, C. albicans ATCC 14053, SDB. The text has this: . Fractional Inhibitory Concentration (FIC) index [FICindex=FICA+FICB] calculation was used to determine synergism between different components of the synthesized compounds while administered separately, where FICA or FICB equals to MIC of compounds A or B in combination divided by MIC of drug A or B alone. If the FIC index is ≦0.5, the combination is synergistic. […]

Assay [3] has as its system C. albicans ATCC 14053. As to the kind of experiment: MIC microdilution susceptibility testing, C. albicans in RPMI. In kind it is cell-based, Candida albicans. The following applies: for MIC: Candida albicans. The method, then:
as §1, §2, §3

The mark [4] stands for this setting: RPMI medium pH 6.9, 35-37° C., 24-48 h, average of three experiments.
Where [5] appears, read: ATCC14053, pH 5.6, SDB medium pH 5.6, 35-37° C.
The mark [6] stands for this setting: ATCC14053, RPMI medium pH 6.9, 35-37° C., 24-48 h, average of three experiments, read-out: MIC C. albicans ATCC 14053, RPMI.

≈ marks a conversion by molar mass, not a printed value.

As to `CCCCCCC(Br)C(=O)OC(Cn1cncn1)(Cn1cncn1)c1ccc(F)cc1F` (stereo not drawn) [Compound 1g, O-2-Bromooctanoylfluconazole], in the assay with A. niger ATCC 16404, the “fold more potent than FLC against A. niger” value is recorded as “at least 5.2 fold” and the “MIC A. niger ATCC 16404, SDB” value was 111 µg/mL (≈ 217 µM). For the same compound, in the assay with C. albicans ATCC 14053 [1], the “fold more active than FLC against C. albicans in SDB” value is on record as “at least 40 fold” and the “fold less antifungal activity against C. albicans in SDB than in RPMI” value was 8 fold. The “MIC C. albicans ATCC 14053, SDB” value against C. albicans ATCC 14053 [1] (SDB medium pH 5.6, 35-37° C.) came out at 111 µg/mL (≈ 217 µM). In the assay with C. neoformans ATCC 66031, the “MIC C. neoformans ATCC 66031, SDB” value came to 14 µg/mL (≈ 27.4 µM). Further, the FIC index in the assay with C. albicans ATCC 14053 [2] amounted to 1.05.
For the compound `O=C(CCCCCCCCCCBr)OC(Cn1cncn1)(Cn1cncn1)c1ccc(F)cc1F` [Compound 1j, O-11-Bromoundecanoylfluconazole], in the assay on A. niger ATCC 16404, the “fold more potent than FLC against A. niger” value is at least 1.5 fold and the “MIC A. niger ATCC 16404, SDB” value stood at 395 µg/mL (≈ 714 µM). For the same compound, in the assay with C. albicans ATCC 14053 [1], the “fold more active than FLC against C. albicans in SDB” value is listed as at least 22 fold and the “fold less antifungal activity against C. albicans in SDB than in RPMI” value is 17 fold. Further, the “MIC C. albicans ATCC 14053, SDB” value in the assay on C. albicans ATCC 14053 [1] (SDB medium pH 5.6, 35-37° C.) stood at 198 µg/mL (≈ 358 µM). The FIC index with C. albicans ATCC 14053 [2] was 1.04. In the assay on C. albicans ATCC 14053 [3] (setting [4]), the “MIC C. albicans ATCC 14053, RPMI” value was 12 µg/mL (≈ 21.7 µM).
Turning to `Fc1ccc(C(Cl)(Cn2cncn2)Cn2cncn2)c(F)c1` [Cl], the MIC (commonly the least concentration at which growth counts as inhibited) is 883 µg/mL (≈ 2720 µM) in the assay with A. niger ATCC 16404, over 883 µg/mL with C. albicans ATCC 14053 [1] (setting [5]), 28 µg/mL (≈ 86.2 µM) against C. neoformans ATCC 66031 and 1140 µg/mL (≈ 3500 µM) in the assay on C. albicans ATCC 14053 [3] (setting [6]).
Turning to `CCCCCCC(Br)C(=O)O` (stereo not drawn) [2-Bromooctanoic acid, reference compound], the values for the MIC with C. albicans ATCC 14053 [1] (setting [5]), in the assay on C. neoformans ATCC 66031 and in the assay on C. albicans ATCC 14053 [3] (setting [6]) were 865 µg/mL (≈ 3880 µM), 433 µg/mL (≈ 1940 µM) and 865 µg/mL (≈ 3880 µM), respectively. Also, the FIC index in the assay on C. albicans ATCC 14053 [2] worked out at 0.30. In addition, the “fold less antifungal inhibition than 1g used alone” value in the assay on C. albicans ATCC 14053 [2] (mixture with FLC, C. albicans, SDB) is on record as “approximately 2 fold”.
In the case of `CCCC(Br)C(=O)O` (stereo not drawn) [2-Bromovaleric acid, reference compound], the MIC with A. niger ATCC 16404 is at least 578 µg/mL; in the assay with C. albicans ATCC 14053 [1] (setting [5]), 578 µg/mL (≈ 3190 µM); in the assay with C. neoformans ATCC 66031, 290 µg/mL (≈ 1600 µM); in the assay on C. albicans ATCC 14053 [3] (setting [6]) it was at least 578 µg/mL.
With `CCCC(Br)C(=O)OC(Cn1cncn1)(Cn1cncn1)c1ccc(F)cc1F` (stereo not drawn) [Compound 1e, O-2-Bromovaleroylfluconazole], the “MIC A. niger ATCC 16404, SDB” value against A. niger ATCC 16404 is on record as “≧1,100 μg/mL”. Moreover, the “MIC C. albicans ATCC 14053, SDB” value in the assay with C. albicans ATCC 14053 [1] (SDB medium pH 5.6, 35-37° C.) was 552 µg/mL (≈ 1180 µM). In the assay with C. neoformans ATCC 66031, the “MIC C. neoformans ATCC 66031, SDB” value is 1,100 μg/mL. Further, the “MIC C. albicans ATCC 14053, RPMI” value in the assay with C. albicans ATCC 14053 [3] (setting [4]) came out at 275 µg/mL (≈ 586 µM).
As for `[N-]=[N+]=NC(Cn1cncn1)(Cn1cncn1)c1ccc(F)cc1F` [Compound N3], the MIC against A. niger ATCC 16404 is 610 µg/mL (≈ 1840 µM); against C. albicans ATCC 14053 [1] (setting [5]), over 610 µg/mL; with C. neoformans ATCC 66031 it was 19 µg/mL (≈ 57.4 µM); in the assay on C. albicans ATCC 14053 [3] (setting [6]), over 610 µg/mL.
On to `CCCCC(Br)C(=O)OC(Cn1cncn1)(Cn1cncn1)c1ccc(F)cc1F` (stereo not drawn) [Compound 1f, O-2-Bromohexanoylfluconazole], for which the “MIC A. niger ATCC 16404, SDB” value in the assay with A. niger ATCC 16404 is “≧979 μg/mL”. Further, the “MIC C. albicans ATCC 14053, SDB” value against C. albicans ATCC 14053 [1] (SDB medium pH 5.6, 35-37° C.) stood at 492 µg/mL (≈ 1020 µM). In addition, the “MIC C. neoformans ATCC 66031, SDB” value against C. neoformans ATCC 66031 was determined as 492 µg/mL (≈ 1020 µM). For the same compound, the “MIC C. albicans ATCC 14053, RPMI” value against C. albicans ATCC 14053 [3] (setting [4]) amounted to 61 µg/mL (≈ 126 µM).
For the compound `CCCCC(Br)C(=O)O` (stereo not drawn) [2-Bromohexanoic acid, reference compound], the MIC in the assay with A. niger ATCC 16404 is 710 µg/mL (≈ 3640 µM); with C. albicans ATCC 14053 [1] (ATCC14053, SDB medium pH 5.6, 35-37° C.) it was 710 µg/mL (≈ 3640 µM); in the assay with C. neoformans ATCC 66031, 355 µg/mL (≈ 1820 µM); with C. albicans ATCC 14053 [3] (ATCC14053, pH 6.9, read-out: MIC C. albicans ATCC 14053, RPMI), at least 710 µg/mL.
Regarding `O=C(O)CCCCCCCCCCBr` [11-Bromoundecanoic acid, reference compound], the minimal inhibitory concentration (MIC) against A. niger ATCC 16404 came out at 93 µg/mL (≈ 351 µM); in the assay with C. albicans ATCC 14053 [1] (setting [5]), 185 µg/mL (≈ 698 µM); against C. neoformans ATCC 66031 it was 23 µg/mL (≈ 86.7 µM); in the assay with C. albicans ATCC 14053 [3] (setting [6]), 371 µg/mL (≈ 1400 µM). The FIC index in the assay with C. albicans ATCC 14053 [2] was 0.52.
